Values joined by “and” are separate entries in the source; they are usually repeats but may differ in a detail not shown here. Equal entries are not always repeated.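 Compound exposure: 48 hours, 5 concentrations, 96-well plates. Here, GI50 denotes the concentration required for 50% inhibition of growth. At the TGI there is no net growth.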
Key:
Experiment in all cases: inhibition of tumour cell growth, NCI panel, 48 h
[1] = test system: OVCAR-4 ovarian
[2] = test system: NCI-H522 lung
[3] = test system: COLO 205 colon
[4] = test system: OVCAR-8 ovarian
[5] = test system: NCI-H460 lung
[6] = test system: NCI/ADR-RES ovarian
[7] = test system: SK-MEL-2 melanoma
[8] = test system: UO-31 renal
[9] = test system: LOX IMVI melanoma
[10] = test system: CCRF-CEM leukemia

SMILES	GI50 [1]	TGI [1]	GI50 [2]	TGI [2]	GI50 [3]	TGI [3]	GI50 [4]	TGI [4]	GI50 [5]	TGI [5] [µM]	GI50 [6]	TGI [6] [µM]	GI50 [7]	TGI [7]	GI50 [8] [nM]	TGI [8] [µM]	GI50 [9]	TGI [9]	GI50 [10]	TGI [10]
C=C1SC(=Nc2ccccc2Cl)N(C(=O)c2sc3ccccc3c2Cl)C12CCCCC2	7.75 µM	> 100 µM	4230 nM	> 100 µM	8500 nM	22.4 µM	6620 nM	> 100 µM	4710 nM	> 100	3510 nM	> 100	15800 nM	58.8 µM	2330	> 100	21800 nM	> 100 µM	5410 nM	> 100 µM
COc1ccc(NC(=O)c2sc3nc(C)c(C(=O)/C=C/c4cccc(OC)c4)cc3c2N)cc1	4.01 µM	17.8 µM	1380 nM	5.41 µM	2000 nM	10.9 µM	1590 nM	> 50 µM	1070 nM	2.45	1590 nM	> 50	1540 nM	18 µM	842	1.76	906 nM	1.71 µM	1210 nM	> 50 µM
COc1ccc2c(c1OC)C(C(Cl)(Cl)Cl)N1CCc3cc4c(cc3C1=C2)OCO4 (stereo not drawn)	–	69 µM	–	35.1 µM	–	20.8 µM	–	> 100 µM	–	55.3	–	> 100	–	39.4 µM	–	> 100	–	> 100 µM	–	62.2 µM
COC(=O)Nc1nc2ccc(C(=O)c3ccccc3)cc2[nH]1	3.88 µM and 3.13 µM	> 100 µM	317 nM and 323 nM	2.36 µM	331 nM and 274 nM	1.12 µM and 3.74 µM	757 nM and 486 nM	> 100 µM	397 nM and 330 nM	–	346 nM and 357 nM	–	473 nM and 583 nM	22.8 µM and > 100 µM	–	> 100	625 nM and 870 nM	> 100 µM	398 nM and 458 nM	> 100 µM
Cc1c(N)nc(C(CC(N)=O)NCC(N)C(N)=O)nc1C(=O)NC(C(=O)NC(C)C(O)C(C)C(=O)NC(C(=O)NCCc1nc(-c2nc(C(=O)NCCCNC(C)c3ccccc3)cs2)cs1)C(C)O)C(OC1OC(CO)C(O)C(O)C1OC1OC(CO)C(O)C(OC(N)=O)C1O)c1cnc[nH]1 (stereo not drawn)	81.5 µM	33.7 µM and > 100 µM	4100 nM	20 µM and 44.3 µM	32600 nM	50 µM and > 100 µM	–	50 µM and > 100 µM	391 nM	–	–	45.5	66500 nM	30.6 µM and > 100 µM	2900	–	479 nM	2.3 µM and 10.3 µM	7500 nM	50 µM and > 100 µM
O=CN1N=C(c2cccc(Nc3ccnc4cc(Cl)ccc34)c2)CC1c1ccccc1 (stereo not drawn)	0.536 µM	> 100 µM	185 nM	0.633 µM	350 nM	2.76 µM	553 nM	7.5 µM	393 nM	8.4	290 nM	1.17	258 nM	0.825 µM	408	> 100	449 nM	4.34 µM	310 nM	1.48 µM
COc1ccc(/C=C2\SC(=Nc3ccccc3)NC2=O)cc1	10 µM	25.7 µM	4540 nM	24.9 µM	4680 nM	27.9 µM	6620 nM	31.7 µM	3360 nM	13.4	4610 nM	> 100	29300 nM	82.4 µM	6970	> 100	5500 nM	19.6 µM	5400 nM	> 100 µM
Cn1c(-c2ccccc2)c(/C=C/C2=[N+](C)c3ccccc3C2(C)C)c2ccccc21	1.81 µM	14.4 µM	863 nM	3.78 µM	1000 nM	2.47 µM	840 nM	8.95 µM	580 nM	8.24	9800 nM	72.3	1130 nM	4.19 µM	2230	7.3	527 nM	3.25 µM	1180 nM	54.7 µM
O=C(C#Cc1ccccc1)C1=Cc2ccccc2OC1	–	8.9 µM	–	3.42 µM	–	3.93 µM	–	5.85 µM	–	23.7	–	14.4	–	11.7 µM	–	5.34	–	6.32 µM	–	0.528 µM
C[C@]12CC[C@H]3[C@@H](CC4SC(N)=NC45C/C(=N/NC(N)=O)CC[C@]35C)[C@@H]1CCC2=O (stereo partly drawn)	1.74 µM	3.17 µM	1930 nM	4.06 µM	2060 nM	4.37 µM	1850 nM	3.63 µM	1920 nM	3.61	1940 nM	3.87	1980 nM	4.58 µM	1520	2.88	1710 nM	3.12 µM	280 nM	1.62 µM
C[n+]1c2ccccc2nc2ccccc21	0.447 µM	1.75 µM	1300 nM	3.45 µM	375 nM	1.39 µM	2610 nM	20.6 µM	2330 nM	11.2	1680 nM	6.91	1760 nM	4.54 µM	2390	7.6	819 nM	2.38 µM	683 nM	> 28.7 µM
O=C(/C=C1\C(=O)N(Cc2ccccc2)c2ccccc21)c1ccc(OCCN2CCCCC2)cc1	2.99 µM	11.3 µM	1710 nM	3.21 µM	1770 nM	3.27 µM	2130 nM	4.16 µM	3570 nM	11.9	3140 nM	11.7	11700 nM	24.3 µM	1540	2.87	1710 nM	3.14 µM	1830 nM	5.9 µM
